Measured values published in patent US11020419B2, “Use of polyinosinic-polycytidylic acid compositions in treatment of malignant effusion” (BIOSYNGEN PTE, LTD, priority 2016, dated 2021).

Legend:
S180 cell line = experiment: Concomitant use of BSG with chemotherapeutic drugs in S180 cell line induced MA (Example 4); type: in vivo, mice; conditions: for Ascites Vol.: D12 (2 d post-treatment), 7 days treatment from 4 d post-inoculation
Protocol: Materials: S180 cell line (purchased from CCTCC), female BAL/c mice (6-7 weeks old purchased from Centre of Laboratory Animal for Medical Science, Guangdong), BSG (2 mg/ml, produced in house), DDP (cisplatin, 5 mg/ml, from Jingasu Hansoh Pharma, batch no. 160603), CTX (cyclophosphamide), Sodium Chloride for Injection (2.25 g, 250 ml, 0.9%, from Zhejiang Tianrui, pharmaceutica, batch no. 116102506). Methods: 1. MA induction and propagation in mice: take logarithmic growth phase cells, adjust cell density to 5×10^6/ml, inject mice (i.p., 0.4 ml per animal). Collect MA fluid from mice 7-8 days post inoculation, adjust cell density to 2×10^7/ml and inject another 4 mice (i.p., 0.4 ml per animal). Collect MA fluid again from mice 6-7 days post inoculation, adjust cell density to 5×10^6/ml and inoculate 2×10^6 cells to 48 mice before grouping. 2. Grouping: randomly divide mice 4 d post-inoculation according to body weight into A, B, C, D, E, F groups with 8 mice per group. Treat mice with A. BSG (7.5 mg/kg), B. CTX (50 mg/kg), C. DDP (0.5 mg/kg), D. BSG (7.5 mg/kg)+CTX (50 mg/kg), E. BSG (7.5 mg/kg)+DDP (0.5 mg/kg), F. N.S control for 7 days (Grouping detail see Table 7).
3. Observations: 1) record mice behavior and skin/fur glossiness daily, measure body weights and abdominal girth every two days; 2) 2 d post-treatment (D12), obtain blood from eye venous plexus and separate serum for while blood cell count (at least 20 ul). After obtaining blood, execute mice by cervical dislocation, measure pleural fluid volume and record color of fluid; 3) calculate rate of MPE suppression (%)=(1−ave. MPE volume of treatment groups/ave. MA volume of control group)×100%.

H22 cells = system: H22 cells
Protocol: MPE usually refers to tumors originated from the chest metastasis to the pleural space, which leads to the formation of excessive fluid containing cancerous cells and it accounts for about 50% of all pleural effusions. […] Materials: mice liver cancer cell line line (purchased from CCTCC), BAL/c mice (female, 6-7 weeks old, 18-22 g, SPF, purchased from Wei Tong Li Hua, Beijing). BSG, 2 mg/ml, produced in house. Comparator CTX (cyclophosphamide, 0.2 g, from Baxter Oncology GmbH, batch no. 6D111A). Sodium Chloride for Injection (2.25 g, 250 ml, 0.9%, from Zhejiang Tianrui, pharmaceutica, batch no. 116102506).
Methods: Thaw H22 cells, adjust density to 1×10^7 cells/ml, then inject 3 mice, 0.2 ml each. Collect excessive fluid from the injected mice on after 7 days and adjust cell density to 5×10^5/ml, inject another […] into the peritoneal muscle, 0.2 ml/mouse. Divided the mice randomly into 6 groups of 14 mice each three days post-inoculation, among the 14 mice of each group, 6 will be kept separately for survival study (see Table 4b). Treat mice continuously (grouping detail see Table 4a and 4b).
Observations: 1) record mice behavior and skin/fur glossiness daily, measure body weights every two days; 2) 5 h post-treatment on D6, obtain blood from eye venous plexus until death and separate serum for white blood cell count (at least 20 ul); after obtaining blood, execute mice by cervical dislocation, measure pleural fluid volume and obtain thymus, spleen and lung, record organ weight; 3) record survival status of the rest of mice in Groups A2 to E2, calculate average increase in life span (ILS) using formula=[(ave. survival days of treatment groups/ave. survival days of control group)−1]×100%; 4) calculate rate of MPE suppression (%)=(1−ave. MPE volume of treatment groups/ave. MPE volume of control group)×100%.

[1] = system: mice liver cancer cell line H22; experiment: BSG in preventing and controlling MA in H22 mouse model (Example 2); type: in vivo; conditions: for number of mice with nodules at the 7th day post inoculation: 9 mice each; for No. mice survive through Day 15: 9 mice/group; for ILS (average increase in life span): vs control group
Protocol: Materials: mice liver cancer cell line H22; female mice 6-8 weeks old, 18-22 g. BSG, containing 2 mg/ml PIC, produced in-house; comparator, DDP purchased from Jiangzu Haoseng; negative control normal saline (N.S).
Methods: Thaw H22 cell line, wash before inject intraperitoneally (i.p.) into 2 female BALB/c mice, and wait 10 days for peritoneal fluid accumulation. Draw accumulated fluid on D10, adjust the cell density at 1×10^7/ml. Inject another 54 mice via i.p. route with 0.2 ml of the fluid containing total of 2×10^6 cancerous cells. Pick 18 mice and divide into 2 groups at random 24 h post-inoculation. Each group of mice receives either A. BSG (subcutaneous, s.c. 200 ug/ul) or B. DDP (intraperitoneal, i.p. 20 ug/ul) at dosage set out below as a preventive measure. Treat mice daily for 14 days. The rest of mice were divided into 4 groups at random 5 d post-inoculation, namely C. BSG group (s.c.), D. BSG group (i.p.), E. DDP group (i.p.), and F. control group (s.c., N.S). Treat mice daily for 10 days (grouping detail see table below).
MA volume of treatment groups/ave. MA volume of control group)×100%.

[2] = BSG 7.5 mg/kg i.m., CTX 50 mg/kg i.m., DDP 0.5 mg/kg i.p., alone or combined
[3] = D12, BSG 7.5 mg/kg i.m., CTX 50 mg/kg i.m., DDP 0.5 mg/kg i.p., alone or combined
[4] = survival groups, 6 mice each, i.m., BSG 7.5 mg/kg, CTX 30 mg/kg, alone or combined
[5] = preventive, from 24 h post-inoculation, daily 14 days, BSG 200 ug s.c. (Group A), DDP 20 ug i.p. (Group B)
[6] = treatment from 5 d post-inoculation, daily 10 days, i.p.: BSG 200 ug (Group D), DDP 20 ug (Group E)

O=P1(N(CCCl)CCCl)NCCCO1 (stereo not shown) [CTX, cyclophosphamide] was tested, and the “Ascites Vol.” value (S180 cell line; [2]) was 2.84 mL, the MA color recorded (S180 cell line; [3]) was 3 mice with bloody ascites, 4 faintly red and 1 milky color and the “MA Suppression” value (S180 cell line; D12, BSG 7.5 mg/kg i.m., CTX 50 mg/kg i.m., DDP 0.5 mg/kg i.p., alone or combined, vs N.S control) was 63.5%. For the same compound, the “body weight on D7” value (H22 cells; BSG high dose 7.5 mg/kg, CTX 30 mg/kg, combined, i.m., FIG. 5) was “lower body weight”, the “organ weight post treatment (thymus and spleen)” value (H22 cells; CTX 30 mg/kg i.m., FIG. 4) was “lower average weight of organ” and the “Ave. survival” value (H22 cells; i.m., BSG 7.5 mg/kg, CTX 30 mg/kg, alone or combined) was 6.00 days. For the same compound, the “ILS (average increase in life span)” value (H22 cells; i.m., BSG 7.5 mg/kg, CTX 30 mg/kg, alone or combined, vs control, % only in formula b145) was 2.86%, the “No. of Mice D 3” value (H22 cells; [4]) was 6 and the “No. of Mice D 4” value (H22 cells; [4]) was 6. For the same compound, the “No. of Mice D 5” value (H22 cells; [4]) was 4, the “No. of Mice D 6” value (H22 cells; [4]) was 1 and the “No. of Mice D 7” value (H22 cells; [4]) was 1. The “No. of Mice D 8” value (H22 cells; [4]) was 0 and the “No. of Mice D 9” value (H22 cells; [4]) was 0.
With N.N.[Cl][Pt][Cl] [DDP, cisplatin] the “average cancerous cells in ascites” value ([1]; cell count 2D post-treatment (D15), preventive: BSG 200 ug s.c. (Group A), DDP 20 ug i.p. (Group B)) was 3.17 10^6/ml, the “ascites volume (on average)” value ([1]; i.p. administration, BSG 200 ug, DDP 20 ug daily, D15) was 1.7 mL and the “number of mice with nodules at the 7th day post inoculation” value ([1]; preventive groups, BSG 200 ug s.c. (Group A, small size nodule), DDP 20 ug i.p. (Group B, medium size nodules)) was 6. For the same compound, the “No. mice survive through Day 15” value [1, 5] was 6, the “Ave. survival” value [1, 5] was 14.4 days and the “ILS (average increase in life span)” value [1, 5] was 72%. For the same compound, the “number of mice with nodules at the 7th day post inoculation” value ([1]; treatment from 5 d, i.p.: BSG 200 ug (Group D), DDP 20 ug (Group E), medium size nodules) was 6, the “No. mice survive through Day 15” value [1, 6] was 2 and the “Ave. survival” value [1, 6] was 12.8 days. For the same compound, the “ILS (average increase in life span)” value [1, 6] was 53%, the “number of mice not alive until D12” value (S180 cell line; 8 mice per group, DDP 0.5 mg/kg i.p. (Group C), BSG 7.5 mg/kg + CTX 50 mg/kg (Group D)) was 4 and the “Ascites Vol.” value (S180 cell line; [2]) was 5.63 mL. For the same compound, the MA color recorded (S180 cell line; [3]) was “bloody ascites with one mouse having milky color” and the “tumor burden and MA volume (body weight on D12)” value (S180 cell line; survived mice, D12, FIG. 7) was “largest tumor burden and MA volume”.
